Experimental data as given in publication PMC5967867, “An NMDAR positive and negative allosteric modulator series share a binding site and are interconverted by methyl groups” (eLife, 2018).
Where “and” joins values, the source holds several entries; their conditions need not be identical. Equal values may be shown once.

Biological target: GluN1/GluN2A NMDARs (Rattus norvegicus, UniProt P35439+Q00959)
Assay: Whole cell patch-clamp recordings, HEK293 cells expressing GluN1/GluN2A
Type: cell-based
Conditions: for modulation of high desensitized steady state responses / modulation of low desensitized steady state responses (drug/control): 10 µM, 100/30 µM glutamate/glycine; for modulation of high desensitized steady state responses / modulation of low desensitized steady state responses (drug/control) / Kd: HEK cells; for kon / koff: HEK293; for kon: read-out: association rate kon; for koff: read-out: dissociation rate koff; for Kd: calculated from association and dissociation rates, read-out: kinetically-determined affinity constant Kd
Experimental: We studied NMDARs expressed in HEK293 cells to investigate the time course of modulator action. […] These modulators were tested on GluN1/GluN2A and GluN1/GluN2D to see whether there were differences in modulation given the distinct properties of these NMDAR subtypes. […] From these we calculated the kinetically-determined affinity constant (Kd), which we found to be similar to the EC50 values determined from concentration-response experiments. […] Complex actions of EU1794-4 and EU1794-27 were observed, with two temporally-distinct phases of modulation evident for the association of these modulators (Figure 4A). Both compounds produced a rapid inhibition followed by a slowly developing potentiating phase for EU1794-27. The rapid association rate determined during the rapid inhibition produced by EU1794-4 was approximately three times faster than EU1794-2; similarly, the dissociation rate was also faster for EU1794-4 than EU1794-2. Quantitative analysis of the slower phases was challenging due to its lower signal-to-noise ratio. Likewise, the rapid inhibitory phase was also difficult to measure for EU1794-27 because its rapid time course was convolved with the potentiation time course. Additionally, the depotentiation time course is preceded by a transient enhancement of the current response, followed by a relaxation to the pre-modulation level. The time course for potentiation and depotentiation were best fit with an exponential function summed with an additional linear component after the rapid phase subsided. […] All modulatory effects were independent of voltage (Figure 4—figure supplement 1A). The steady state modulator responses from HEK293 cells approximately match the concentration-response relationship determined from TEVC recordings from X. laevis oocytes (Figure 4A, inset graphs). The time-course of modulator binding of EU1794-2, EU1794-4 and EU1794-27 was also determined for GluN1/GluN2A (Figure 4C,D). Higher Kd values (lower potency) were determined for each molecule at GluN1/GluN2A as compared to GluN1/GluN2D that parallel EC50 values determined using X. laevis oocytes. Similar to oocyte data, robust inhibition was produced by EU1794-2, modest inhibition was produced by EU1794-4, and transient inhibition and recovery was observed by the application of EU1794-27. […] The low desensitized group (40% average desensitization) was modulated by 107%, whereas the high desensitized group (10% average desensitization) was modulated to 247% of control by 10 µM EU1794-27 (Figure 4C and Figure 4—figure supplement 1F).
cDNAs for rat wild type NMDAR subunits GluN1-1a (GenBank U11418, U08261; hereafter GluN1 or GluN1a), GluN1-1b (U08263, hereafter GluN1b), GluN2A (D13211), GluN2B (U11419), GluN2C (M91563), and GluN2D (L31611, modified as described in [Monyer et al., 1994]) were provided by Drs. S. Heinemann (Salk Institute), S. Nakanishi (Kyoto University), and P. Seeburg (University of Heidelberg). Site-directed mutagenesis was conducted using the QuikChange kit (Agilent Technologies, Santa Clara, CA) following the recommended protocol. DNA sequencing was used to verify all mutations. The amino acid numbering system started with the initiating methionine as residue number one. For expression in Xenopus laevis oocytes, cDNA constructs were linearized by restriction enzymes, and subsequently used to synthesize in vitro cRNAs following the manufacturer’s protocol (mMessage mMachine, Ambion, ThermoFisher Scientific, Waltham, MA).
HEK293 cells (CRL-1573, ATCC, Manassas, VA) were maintained in a tissue culture room solely reserved for their culturing and transfected using a CaPO4 protocol to express the diheteromeric NMDARs as previously described ([Hansen et al., 2013]). Cell lines were obtained directly from the supplier, were expanded, frozen and kept in liquid nitrogen in a dewar. Mycoplasma testing was not performed. cDNA ratios for transfection were 1:1:1 (GluN2D) or 1:1:5 (GluN2A) for GluN1:GluN2:GFP. […]

[1] = concentration dependence of linear component of time course

Sequence of GluN1/GluN2A NMDARs (Q00959 23-1464, other chains not shown): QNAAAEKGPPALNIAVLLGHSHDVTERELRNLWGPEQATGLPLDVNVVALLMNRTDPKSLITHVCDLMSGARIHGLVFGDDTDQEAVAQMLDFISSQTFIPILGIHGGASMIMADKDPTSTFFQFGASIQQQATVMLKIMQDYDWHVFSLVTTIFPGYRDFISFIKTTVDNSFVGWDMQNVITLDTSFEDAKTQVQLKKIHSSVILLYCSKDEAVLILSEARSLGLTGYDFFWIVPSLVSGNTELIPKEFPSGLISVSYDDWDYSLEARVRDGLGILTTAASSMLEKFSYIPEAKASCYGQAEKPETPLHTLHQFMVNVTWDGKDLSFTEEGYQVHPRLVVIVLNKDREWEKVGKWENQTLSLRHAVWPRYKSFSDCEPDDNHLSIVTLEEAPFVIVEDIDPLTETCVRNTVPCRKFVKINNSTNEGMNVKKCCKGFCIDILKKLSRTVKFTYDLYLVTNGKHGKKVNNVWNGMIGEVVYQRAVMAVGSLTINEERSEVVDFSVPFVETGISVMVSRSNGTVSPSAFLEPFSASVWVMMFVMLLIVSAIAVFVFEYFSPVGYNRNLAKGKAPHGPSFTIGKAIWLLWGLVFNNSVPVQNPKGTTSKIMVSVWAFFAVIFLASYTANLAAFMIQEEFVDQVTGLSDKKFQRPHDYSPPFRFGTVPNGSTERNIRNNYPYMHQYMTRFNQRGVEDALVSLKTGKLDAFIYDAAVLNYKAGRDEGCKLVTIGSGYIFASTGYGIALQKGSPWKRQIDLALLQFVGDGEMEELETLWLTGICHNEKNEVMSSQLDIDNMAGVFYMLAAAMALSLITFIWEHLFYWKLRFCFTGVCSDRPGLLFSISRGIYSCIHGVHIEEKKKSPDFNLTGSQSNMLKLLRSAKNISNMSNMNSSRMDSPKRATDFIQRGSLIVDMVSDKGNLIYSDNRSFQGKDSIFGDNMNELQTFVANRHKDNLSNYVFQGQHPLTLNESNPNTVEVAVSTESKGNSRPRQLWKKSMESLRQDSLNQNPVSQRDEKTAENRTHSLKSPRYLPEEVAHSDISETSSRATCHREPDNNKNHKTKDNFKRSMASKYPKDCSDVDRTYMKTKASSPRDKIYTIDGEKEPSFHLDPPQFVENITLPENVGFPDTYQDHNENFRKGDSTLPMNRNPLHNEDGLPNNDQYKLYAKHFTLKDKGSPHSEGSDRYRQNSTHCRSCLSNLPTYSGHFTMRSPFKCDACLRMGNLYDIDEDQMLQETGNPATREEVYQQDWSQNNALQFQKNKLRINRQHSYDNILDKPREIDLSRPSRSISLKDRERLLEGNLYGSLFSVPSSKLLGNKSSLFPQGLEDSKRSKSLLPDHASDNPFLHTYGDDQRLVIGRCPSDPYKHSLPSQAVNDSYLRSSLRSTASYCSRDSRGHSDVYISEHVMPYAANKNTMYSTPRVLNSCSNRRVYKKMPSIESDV

Row | Compound | modulation of high desensitized steady state responses | modulation of low desensitized steady state responses (drug/control) | kon | koff | Kd | association linear component slope mon [1] | dissociation linear component slope moff [1]
1 | CCOC(=O)c1c(NC(=O)CC2SC(=N)NC2=O)sc2c1CCC(C)C2 (stereo not shown) [EU1794-2, ethyl 2-(2-(2-imino-4-oxothiazolidin-5-yl)acetamido)-6-methyl-4,5,6,7-tetrahydrobenzo[b]thiophene-3-carboxylate] | 32 % of control | 13 % of control | 390000 M⁻¹ s⁻¹ | 0.938 s⁻¹ | 2.41 µM | – | –
2 | CCOC(=O)c1c(NC(=O)CC2SC(=N)NC2=O)sc2c1CCCC2 (stereo not shown) [EU1794-4, ethyl 2-(2-(2-imino-4-oxothiazolidin-5-yl)acetamido)-4,5,6,7-tetrahydrobenzo[b]thiophene-3-carboxylate] | – | 47 % of control | 502000 M⁻¹ s⁻¹ | 3.94 s⁻¹ | 7.85 µM | – | –
3 | CC(C)(C)OC(=O)c1c(NC(=O)CC2SC(=N)NC2=O)sc2c1CCCC2 (stereo not shown) [EU1794-27, tert-butyl 2-(2-(2-imino-4-oxothiazolidin-5-yl)acetamido)-4,5,6,7-tetrahydrobenzo[b]thiophene-3-carboxylate] | 247 % of control and 247 ± 31 % of control | 107 % of control and 107 ± 16 % of control | 59200 M⁻¹ s⁻¹ | 0.426 s⁻¹ | 7.2 µM | −0.33 pA/(s*µM) | 0.16 pA/(s*µM)
